Measurements: patent US8592579B2, “Pyrrolotriazine kinase inhibitors” (Bristol-Myers Squibb Company, priority 2006, dated 2013)

What follows are compounds tested on IGF1R-Sal tumors (assay: IGF-1R Sal Tumor Model). Conditions: Mus musculus, 96 h, 6.25 mpk, qd, oral, 4 consecutive days, read-out: IGF-1R Sal % TGI.
Type: in vivo, nude mice
Protocol: A salivary gland adenocarcinoma that developed spontaneously in a transgenic mouse (MCI-19) was excised and cut into fragments of about 20 mg. Tumor fragments were implanted s.c. into the ventral thoracic region of a group of six female, athymic BALB/c nu/nu mice (Harley Sprague-Dawley, Indianapolis, Ind.), using a 13-gauge trocar. Once established, the salivary gland-derived tumor line was designated IGF 1R-Sal and was propagated as a tumor xenograft in nude mice. Tumors were passaged every 2 weeks, at which time the tumor reached f500 to 1,000 mm3 in size. […] Compounds were administered either on a bid schedule (oral doses 8 hours apart) or on a once a day schedule orally (qd) for 4 consecutive days. Tumors were measured at the start and end of treatment. Activity was measured as % tumor growth inhibition (% TGI). The % TGI was determined using the following formula (Ct−Tt)/(Ct−Co) where Ct is defined as the median tumor size of the control group at the end of treatment, Co is defined as the median tumor size of the control group at the start of treatment, and Tt is defined as the median tumor size of the treated group at the end of treatment.

| Compound | inhibition in vivo at 6.25 mg/kg |
| --- | --- |
| CNC(=O)[C@@H]1CCCN1c1nc(Nc2cc(C3CC3)[nH]n2)c2cccn2n1 [Example 3, (S)-1-(4-(5-cyclopropyl-1H-pyrazol-3-ylamino)pyrrolo[1,2-f][1,2,4]triazin-2-yl)-N-methylpyrrolidine-2-carboxamide] | 80% |

Same assay, conditions: Mus musculus, 96 h, 25 mpk, bid, oral, 4 consecutive days, read-out: IGF-1R Sal % TGI

| Compound | inhibition in vivo at 25 mg/kg |
| --- | --- |
| C[C@@]1(C(=O)Nc2cccnc2)CCCN1c1nc(Nc2cc(C3CC3)[nH]n2)c2cccn2n1 [Example 68] | 76% |
| CC1(c2cc(Nc3nc(N4CCC[C@H]4C(=O)N[C@@H]4CCCNC4)nn4cccc34)n[nH]2)CC1 [Example 194, (S)-1-(4-(5-(1-methylcyclopropyl)-1H-pyrazol-3-ylamino)pyrrolo[1,2-f][1,2,4]triazin-2-yl)-N-((R)-piperidin-3-yl)pyrrolidine-2-carboxamide] | 52% |
| Cc1cc(Nc2nc(N3CCC[C@@]3(C)C(=O)Nc3cccnc3)nn3cccc23)n[nH]1 [Example 85] | 76% |
| O=C(Nc1ccc(F)nc1)[C@@H]1C[C@@H](O)CN1c1nc(Nc2cc(C3CC3)[nH]n2)c2cccn2n1 [Example 217, (2S,4R)-1-(4-(5-cyclopropyl-1H-pyrazol-3-ylamino)pyrrolo[1,2-f][1,2,4]triazin-2-yl)-N-(6-fluoropyridin-3-yl)-4-hydroxypyrrolidine-2-carboxamide] | 0% |
| CC(C)n1cnc(Nc2nc(N3CCC[C@H]3C(=O)NC3CCCN(C)C3)nn3cccc23)c1 (stereo partly drawn) [Example 236, (S)-1-(4-(1-Isopropyl-1H-imidazol-4-ylamino)pyrrolo[1,2-f][1,2,4]triazin-2-yl)-N-((R)-1-methylpiperidin-3-yl)pyrrolidine-2-carboxamide] | 113% |
| Cc1cc(NC(=O)[C@]2(C)CCCN2c2nc(Nc3cc(C4CC4)[nH]n3)c3cccn3n2)n[nH]1 [Example 135] | 25% |
| O=C(Nc1nccs1)[C@@H]1C[C@@H](F)CN1c1nc(Nc2cc(C3CC3)[nH]n2)c2cccn2n1 [Example 198, (2S,4R)-1-(4-(5-cyclopropyl-1H-pyrazol-3-ylamino)pyrrolo[1,2-f][1,2,4]triazin-2-yl)-4-fluoro-N-(thiazol-2-yl)pyrrolidine-2-carboxamide] | 124% |

Same assay, conditions: Mus musculus, 96 h, 50 mpk, qd, oral, 4 consecutive days, read-out: IGF-1R Sal % TGI

| Compound | inhibition in vivo at 50 mg/kg |
| --- | --- |
| CC(C)n1cnc(Nc2nc(N3C[C@@H](O)C[C@H]3C(=O)Nc3cnccn3)nn3cccc23)c1 [Example 245, (2S,4S)-4-hydroxy-1-(4-(1-isopropyl-1H-imidazol-4-ylamino)pyrrolo[L2-f][1,2,4]triazin-2-yl)-N-(pyrazin-2-yl)pyrrolidine-2-carboxamide] | 112% |
| C[C@@]1(C(=O)Nc2cnccn2)C[C@H](O)CN1c1nc(Nc2cc(C3CC3)[nH]n2)c2cccn2n1 [Example 227, (2S,4S)-1-(4-(5-cyclopropyl-1H-pyrazol-3-ylamino)pyrrolo[1,2-f][1,2,4]triazin-2-yl)-4-hydroxy-2-methyl-N-(pyrazin-2-yl)pyrrolidine-2-carboxamide] | 115% |
| O=C(Nc1cnccn1)[C@@H]1C[C@@H](F)CN1c1nc(Nc2cc(C3CC3)[nH]n2)c2cccn2n1 [Example 206] | 111% |
